Test results published in the OPERA property sets (Mansouri et al. 2018).

conditions: not given

SMILES	boiling point [°C]	melting point [°C]	ready biodegradability	log10 Koc (L/kg)	log10 vapour pressure (mmHg)	log10 Koa	log10 Henry constant (atm·m³/mol)
CCC(C)C(C)(C)C(C)C (centres undefined)	165	–	–	–	–	–	–
Cc1cc(Cl)[nH]n1	258	118	–	–	–	–	–
O=C1/C(=C2\Nc3ccccc3C2=O)Nc2ccccc21	–	–	not readily biodegradable	–	–	–	–
COc1nc(NC(C)C)nc(NC(C)C)n1	–	91.5	–	2.6	-5.64	–	–
C=CCCCC	63.4	-140	readily biodegradable	–	2.26	2.41	–
Clc1ccc(-c2c(Cl)cc(Cl)c(Cl)c2Cl)c(Cl)c1	–	73	–	–	–	–	–
O=C(Oc1ccc2ccccc2c1)c1ccccc1O	–	95.5	–	–	–	–	–
Cc1ccc2cc(N(C)C)ccc2n1	319	101	–	–	–	–	–
N#Cc1c[nH]cc1-c1cccc(Cl)c1Cl	–	147	–	–	-7.08	–	–
CCOP(=S)(Oc1cnc(C(C)(C)C)nc1)OC(C)C (centres undefined)	–	–	–	–	-4.43	–	–
COC1=C[C@@H]2[C@@H]3Cc4ccc(OC)c(O)c4[C@]2(CCN3C)CC1=O	–	162	–	–	–	–	–
CN(CCO)CCO	247	-21	not readily biodegradable	–	-3.7	–	–
Oc1ccc2c(O)c3ccccc3cc2c1O	–	208	–	–	–	–	–
FC(F)(F)c1cccc(C(c2ccccc2)(c2ccccc2)n2cncn2)c1	–	132	–	–	–	–	–
FC(F)(Cl)C(F)(Cl)C(F)(F)Cl	73.7	-72	–	–	–	–	–
CCc1ccccc1N	210	-46.5	–	–	-0.77	–	–
S=P(N1CC1)(N1CC1)N1CC1	–	51.5	–	–	–	–	–
COC(=O)CCC#N	211	–	–	–	–	–	–
C1CCCCCCCCC1	202	10	–	–	-0.252	–	–
CC1CCC(C)(C)C1 (centres undefined)	105	-142	–	–	1.05	–	–
CCOC(=O)C(C)[N+](=O)[O-] (centres undefined)	190	–	–	–	–	–	–
C/C(=C/CC[C@@]1(C)C2C[C@@H]3[C@H](C2)C31C)CO	302	–	–	–	–	–	–
Cc1cc2nc3c(=O)[nH]c(=O)nc-3n(C)c2cc1C	–	320	–	–	–	–	–
c1ccc(CNc2[nH]cnc3ncnc2-3)cc1	–	233	–	–	-10.7	–	–
N#CI	–	147	–	–	–	–	–
CN1[C@@H](CC(=O)c2ccccc2)CCC[C@H]1C[C@H](O)c1ccccc1	–	130	–	–	–	–	–
O=C1c2ccccc2-c2ccc(O)cc21	–	205	–	–	–	–	–

SMILES	boiling point [°C]	melting point [°C]	ready biodegradability	log10 Koc (L/kg)	log10 vapour pressure (mmHg)	log10 Koa	log10 Henry constant (atm·m³/mol)
N#CCc1cccc([N+](=O)[O-])c1	–	63	–	–	–	–	–
O=CCCCC=O	–	–	–	–	-0.222	–	–
Fc1c(F)c(F)c(CBr)c(F)c1F	174	–	–	–	–	–	–
COc1ccc([N+](=O)[O-])c(OC)c1	–	76.5	–	–	–	–	–
O=C(O)CCCC(=O)O	303	–	–	–	-5.54	–	–
ICCCCCCI	–	9.5	–	–	–	–	–
C[C@@H]1NC(=O)N[C@@H]1CCCCCC(=O)O	–	157	–	–	–	–	–
Clc1ccc(Cl)c(-c2cccc(Cl)c2Cl)c1	–	–	–	–	–	8.36	-3.85
CC/C=C\C(C)(C)C	–	-137	–	–	–	–	–
COC(=O)CC(O)(CC(=O)OC)C(=O)OC	285	79.3	–	–	–	–	–
O=[N+]([O-])c1ccc(I)cc1	288	175	–	–	–	–	–
O=[N+]([O-])c1cc(S(=O)(=O)Nc2ccccc2)ccc1Nc1ccccc1	–	156	not readily biodegradable	–	–	–	–
C=CCCCCCCCCCCCCCCCCCCCCC(=O)O	–	–	readily biodegradable	–	–	–	–
Clc1ccc(Br)cc1	196	68	–	–	-0.588	–	–
Cc1ccnc(C)c1	158	-64	readily biodegradable	–	0.5	–	-5.17
C=CC(CC)c1ccccc1 (centres undefined)	192	–	–	–	–	–	–
C=COCC(CC)CCCC (centres undefined)	–	-100	not readily biodegradable	–	–	–	–
CC1=NOC(=O)/C1=N\Nc1ccccc1Cl	–	168	–	–	–	–	–
CCS(=O)(=O)c1ccc(F)cc1	–	41	–	–	–	–	–
CCCCCC(C)O (centres undefined)	159	–	–	–	0.0899	–	–
CC(C)c1ccc2ccccc2c1	268	14.5	–	–	-2.29	–	–
CC(C)(O)CCO	202	–	–	–	–	–	–
CC1=C(C(=O)Nc2ccccc2)S(=O)(=O)CCO1	–	120	–	1.98	-7.38	–	–
COC(=O)[C@]12OC[C@]34[C@H]([C@@H](O)[C@@H]1O)[C@@]1(C)CC(=O)C(O)=C(C)[C@@H]1C[C@H]3OC(=O)[C@H](OC(=O)/C=C(\C)C(C)C)[C@@H]24	–	226	–	–	–	–	–
O=S(=O)(O)c1cccc2c(S(=O)(=O)O)cccc12	–	–	readily biodegradable	–	–	–	–
CC(C)(C)C=O	77.5	6	readily biodegradable	–	–	–	–

same assay, conditions: fish

SMILES	log10 BCF	log10 biotransformation half-life (days)
CC(C)(O)C(Cl)(Cl)Cl	0.23	–
CC1CCC(C(C)C)C(O)C1 (centres undefined)	1.03	-1.19
Clc1cc2c(c(Cl)c1Cl)Oc1cc(Cl)c(Cl)c(Cl)c1O2	3.93	1.21
ClC(Cl)=C(Cl)C(Cl)=C(Cl)Cl	3.82	2.07
Clc1cc(Cl)c(Cl)c(-c2ccccc2Cl)c1	–	2.8
Cc1ccc(-c2ccc(C)c(C)c2)cc1C	–	-0.01
Cc1cc(O)ccc1Cl	0.93	-1.28
Clc1ccc(Cl)c(-c2cccc(Cl)c2Cl)c1	4.84	2.33
O=[N+]([O-])c1cc(S(=O)(=O)Nc2ccccc2)ccc1Nc1ccccc1	1.61	-0.66
C=COCC(CC)CCCC (centres undefined)	2.78	–
CC(C)c1ccc2ccccc2c1	–	1
